According to publication PMC9501633, “Synthesis, Characterisation and Mechanism of Action of Anticancer 3-Fluoroazetidin-2-ones” (Pharmaceuticals, 2022):

Columns and labels:
Format in all cases: cell-based, human
COLO 205 = test: NCI 60 cell line screen, Colon; conditions: one dose 10 µM
SNB-19 = test: NCI 60 cell line screen, CNS; conditions: one dose 10 µM
HCT-116 = test: NCI 60 cell line screen, Colon; conditions: one dose 10 µM
HCT-15 = test: NCI 60 cell line screen, Colon; conditions: one dose 10 µM
K-562 = test: NCI 60 cell line screen, Leukaemia
NCI-H522 = test: NCI 60 cell line screen, NSCLung; conditions: one dose 10 µM
LOX IMVI = test: NCI 60 cell line screen, Melanoma; conditions: one dose 10 µM
A498 = test: NCI 60 cell line screen, Renal; conditions: one dose 10 µM
A549/A TCC = test: NCI 60 cell line screen, NSCLung; conditions: one dose 10 µM
NCI-H23 = test: NCI 60 cell line screen, NSCLung; conditions: one dose 10 µM
OVCAR-3 = test: NCI 60 cell line screen, Ovarian; conditions: one dose 10 µM
OVCAR-8 = test: NCI 60 cell line screen, Ovarian; conditions: one dose 10 µM
NCI/ADR-RES = test: NCI 60 cell line screen, Ovarian; conditions: one dose 10 µM
IGROV1 = test: NCI 60 cell line screen, Ovarian
M14 = test: NCI 60 cell line screen, Melanoma; conditions: one dose 10 µM
786–0 = test: NCI 60 cell line screen, Renal; conditions: 786-0, one dose 10 µM
MDA-MB-435 = test: NCI 60 cell line screen, Melanoma; conditions: one dose 10 µM
HS 578T = test: NCI 60 cell line screen, Breast; conditions: one dose 10 µM
CCRF-CEM = test: NCI 60 cell line screen, Leukaemia; conditions: one dose 10 µM
UACC-257 = test: NCI 60 cell line screen, Melanoma; conditions: one dose 10 µM
UACC-62 = test: NCI 60 cell line screen, Melanoma; conditions: one dose 10 µM
SNB-75 = test: NCI 60 cell line screen, CNS; conditions: one dose 10 µM
MDA-MB-468 = test: NCI 60 cell line screen, Breast; conditions: one dose 10 µM
EKVX = test: NCI 60 cell line screen, NSCLung; conditions: one dose 10 µM
KM12 = test: NCI 60 cell line screen, Colon; conditions: one dose 10 µM
PC-3 = test: NCI 60 cell line screen, Prostate; conditions: one dose 10 µM
MCF7 = test: NCI 60 cell line screen, Breast; conditions: one dose 10 µM
HL-60(TB) = test: NCI 60 cell line screen, Leukaemia; conditions: one dose 10 µM
MDA-MB-231/ATCC = test: NCI 60 cell line screen, Breast; conditions: one dose 10 µM
MOLT-4 = test: NCI 60 cell line screen, Leukaemia; conditions: one dose 10 µM

## CCOc1ccc(C2N(c3cc(OC)c(OC)c(OC)c3)C(=O)C2(F)F)cc1 (stereo not shown) [Compound 37, 4-(4-Ethoxyphenyl)-3,3-difluoro-1-(3,4,5-trimethoxyphenyl)azetidin-2-one]
COLO 205; Homo sapiens
  inhibition at 10 µM: 89.2%
COLO 205
  Growth %: 10.78%
SNB-19; Homo sapiens
  inhibition at 10 µM: 45.9%
SNB-19
  Growth %: 54.14%
HCT-116; Homo sapiens
  inhibition at 10 µM: 91.1%
HCT-116
  Growth %: 8.92%
HCT-15; Homo sapiens
  inhibition at 10 µM: 77.5%
HCT-15
  Growth %: 22.55%
K-562; Homo sapiens, K562, one dose 10 µM
  inhibition at 10 µM: 91.5%
K-562; one dose 10 µM
  Growth %: 8.49%
NCI-H522; Homo sapiens
  inhibition at 10 µM: 80.7%
NCI-H522
  Growth %: 19.28%
LOX IMVI; Homo sapiens
  inhibition at 10 µM: 72.4%
LOX IMVI
  Growth %: 27.57%
A498; Homo sapiens
  inhibition at 10 µM: 7.7%
A498
  Growth %: 92.3%
A549/A TCC; Homo sapiens
  inhibition at 10 µM: 66.4%
A549/A TCC
  Growth %: 33.56%
NCI-H23; Homo sapiens
  inhibition at 10 µM: 66.4%
NCI-H23
  Growth %: 33.57%
OVCAR-3; Homo sapiens
  inhibition at 10 µM: 92.8%
OVCAR-3
  Growth %: 7.25%
OVCAR-8; Homo sapiens
  inhibition at 10 µM: 56.8%
OVCAR-8
  Growth %: 43.23%
NCI/ADR-RES; Homo sapiens
  inhibition at 10 µM: 71.1%
NCI/ADR-RES
  Growth %: 28.94%
IGROV1; Homo sapiens, IGROV-1, one dose 10 µM
  inhibition at 10 µM: 62.2%
IGROV1; one dose 10 µM
  Growth %: 37.8%
M14; Homo sapiens
  inhibition at 10 µM: 72.5%
M14
  Growth %: 27.45%
786–0
  Growth %: 64.68%
786–0; Homo sapiens
  inhibition at 10 µM: 35.3%
MDA-MB-435; Homo sapiens
  inhibition at 10 µM: 83.2%
MDA-MB-435
  Growth %: 16.83%
HS 578T; Homo sapiens
  inhibition at 10 µM: 62.6%
HS 578T
  Growth %: 37.42%
CCRF-CEM; Homo sapiens
  inhibition at 10 µM: 89.8%
CCRF-CEM
  Growth %: 10.2%
UACC-257; Homo sapiens
  inhibition at 10 µM: 41.3%
UACC-257
  Growth %: 58.69%
UACC-62; Homo sapiens
  inhibition at 10 µM: 48.4%
UACC-62
  Growth %: 51.61%
SNB-75; Homo sapiens
  inhibition at 10 µM: 44.1%
SNB-75
  Growth %: 55.93%
MDA-MB-468; Homo sapiens
  inhibition at 10 µM: 65.1%
MDA-MB-468
  Growth %: 34.89%
EKVX; Homo sapiens
  inhibition at 10 µM: 24.7%
EKVX
  Growth %: 75.34%
KM12; Homo sapiens
  inhibition at 10 µM: 72%
KM12
  Growth %: 27.97%
PC-3; Homo sapiens
  inhibition at 10 µM: 62.7%
PC-3
  Growth %: 37.3%
MCF7; Homo sapiens, MCF7, MCF7
  inhibition at 10 µM: 82.8%
MCF7; MCF7
  Growth %: 17.19%
  Inhibition %: 82.8%
HL-60(TB); Homo sapiens
  inhibition at 10 µM: 116%
HL-60(TB)
  Growth %: -15.97%
MDA-MB-231/ATCC; Homo sapiens
  inhibition at 10 µM: 53.9%
MDA-MB-231/ATCC
  Growth %: 46.12%
MOLT-4; Homo sapiens
  inhibition at 10 µM: 81.9%
MOLT-4
  Growth %: 18.14%
